Reference: article PMC12114375, “Discovery of Hydrazineyl Amide Derivative of Pseudolaric Acid B for Reprogramming Tumor-Associated Macrophages Against Tumor Growth” (Molecules, 2025)

Key:
Format in all cases: cell-based, mouse
[1] = test system: ARG1 mRNA expression in RAW 264.7 cells; test: qRT-PCR of ARG1 mRNA in IL-4/IL-13-stimulated RAW 264.7 cells; conditions: Mus musculus, RAW264.7, IL-4/IL-13 (20 ng/mL) plus compound 10 μM, 12 h, stimulated control = 100%, mean ± SD, read-out: ARG1 mRNA Relative Expression (%)
Source text: (§1) We first investigated the impacts of a series of commercially available natural pseudolaric acids or their O-pyranosides (Figure 1) on the pro-tumoral phenotype of TAMs, which play a critical role in anti-tumor immune response modulation. […] In contrast, M1-biased macrophages combat tumor growth and bacterial infections by expressing inducible nitric oxide synthase 2 (NOS2), which catalyzes the production of nitric oxide (NO). Recognizing the pivotal roles of ARG1 and NOS2, we utilized these molecules as key biomarkers and effectors for assessing macrophage immune function. In our experiments, the mouse monocyte–macrophage leukemia cell line RAW 264.7 was induced with IL-4/IL-13 to acquire an M2-like pro-tumoral phenotype. Concurrently, the cells were treated with the pseudolaric acid-related natural products 1–7 at a concentration of 10 μM for 12 h. Additionally, PLX3397 was used as a positive control at a concentration of 0.5 μM. […] As shown in Table 1 and Figure S1A, pseudolaric acid B (1), its deacetoxyl analogue 2 (pseudolaric acid C), and β-D-glucoside 7 substantially attenuated the upregulation of ARG1 mRNA expression induced by IL-4/IL-13, with statistically significant effects. In contrast, bis-carboxylic acids analogs 4 (pseudolaric acid C2) and 6 (demethoxydeacetoxypseudolaric acid B) have no significant impact on ARG1 mRNA expression.
(§2) With these carboxylic acid-modified derivatives in hand, we investigated their impact at 10 μM on ARG1 and NOS2 mRNA expression in RAW 264.7 cells pre-stimulated with IL-4/IL-13 to evaluate the effects on the pro-tumor phenotype of macrophages. […] Further removal of one hydroxyl from the glycerol moiety 15 further enhanced the inhibitory effect on ARG1 expression but had no significant impact on NOS2 expression.
(§3) Total RNA was isolated from cells using the EZ-press RNA Purification Kit (EZBioscience, Suzhou, China) and subjected to reverse transcription with the 5×HiScript II qRT SuperMix II (Vazyme, Nanjing, China). PCR was performed with the 2×ChamQ Universal SYBR qPCR Master Mix (Vazyme, Nanjing, China). All primers for qRT-PCR are described in Table S1. The 2^−∆∆Ct method was utilized to calculate the fold change in gene expression, with the expression levels in the stimulated group set as the baseline for normalization.

[2] = test system: NOS2 mRNA expression in RAW 264.7 cells; test: qRT-PCR of NOS2 mRNA in IL-4/IL-13-stimulated RAW 264.7 cells; conditions: Mus musculus, RAW264.7, IL-4/IL-13 (20 ng/mL) plus compound 10 μM, 12 h, stimulated control = 100%, mean ± SD, read-out: NOS2 mRNA Relative Expression (%)
Source text: as §1, §2, §3

Raw264.7 cells = test: Cell viability (CCK-8) of RAW264.7 cells; conditions: IL-4/IL-13 plus compound 10 μM, 12 h
Method: Cells were seeded in 96-well tissue culture plates. On the next day, cells were exposed to various concentrations of compounds and further cultured for the indicated period. Finally, cell proliferation was determined by using the Cell Counting Kit (CCK-8) (Dojindo, Kumamoto, Japan) assay.
Figure S2. Effects of natural pseudolaric acids 1-4, 6 and their O-pyranosides 5, 7 as well as the derivatives 8-18 o f 1 on Raw264.7 cell viability. Raw264.7 cells were treated with IL-4/IL-13 alone or combined with indicated compounds (10 μM) for 12 h. After incubation, the cell viability was determined using a cell counting kit (CCK-8, Dojindo, Japan) assay.
(1 picture or pasted object on this page, not shown here)

[3] = test system: ARG1, NOS2, CD206 and MHC II mRNA expression in RAW 264.7 cells; test: qRT-PCR of ARG1, NOS2, CD206, MHC II in RAW264.7 cells at multiple concentrations; conditions: RAW 264.7 cells stimulated with IL-4/IL-13, multiple concentrations, 12 h
Method: We also extended the test to primary murine macrophages derived from bone marrow (BMDMs), which were cultured in vitro with recombinant mouse M-CSF for 6 days. The BMDMs were then stimulated with IL-4/IL-13, leading to their transformation into M2-like pro-tumoral macrophages. This transformation was characterized by an increase in both ARG1 and CD206 expression and a decrease in both NOS2 and MHC II expression. […] Subsequently, we assessed the capacity of compound 12 to inhibit the M2-like polarization of macrophages using CSF-1-differentiated mouse BMDMs. These cells were treated with IL-4 and IL-13 for 48 h, and the expression levels of CD206, an M2-type marker, and CD86, an M1-type marker, were analyzed via flow cytometry. […]
Figure 2 Compound 12 inhibits the M2-like polarized phenotype of macrophages. […] The expression levels of the markers CD206 and CD86 on induced macrophages were determined by flow cytometry, and the mean fluorescence intensity (MFI) was analyzed with FlowJo (C), or the cells were lysed and immunoblotted to detect the indicated proteins (D). […] Data are represented as means ± SD. ^### p < 0.001 vs. non-stimulated control group, * p < 0.05, ** p < 0.01, *** p < 0.001 vs. stimulated control group. p-values were determined using one-way ANOVA.

COC(=O)C1=CC[C@@]23CC[C@@H]([C@@](C)(/C=C/C=C(\C)C(=O)O)OC2=O)[C@@]3(OC(C)=O)CC1 [compound 1, pseudolaric acid B]
mrna remaining at 10 µM [1]: 9.9 ± 0.8%
activity at 10 µM [2]: 135 ± 19.5%
cell viability (Raw264.7 cells): only a minimal reduction in cell viability
mRNA expression levels of ARG1 and CD206 [3]: significantly reduced
mRNA expression levels of NOS2 and MHC II [3]: upregulated the mRNA expression levels of NOS2 and MHC II in a dose-dependent manner
